According to ChEMBL document CHEMBL4828725 (Eur J Med Chem, 2021):

Tests used:
[1] = Inhibition of rice alpha-glucosidase using p-nitrophenyl glycoside as substrate assessed as release of p-nitrophenol measured by spectrometric assay; parameters: species or system Oryza sativa
[2] = Inhibition of rat intestinal maltase using maltose as substrate assessed as release of D-glucose measured by spectrometric assay
[3] = target: T1, Sucrase-isomaltase, intestinal (Rattus norvegicus, UniProt P23739); assay: Inhibition of rat intestinal sucrase using p-nitrophenyl glycoside as substrate assessed as release of p-nitrophenol measured by spectrometric assay
T1 sequence (P23739 1-1013 limits assumed): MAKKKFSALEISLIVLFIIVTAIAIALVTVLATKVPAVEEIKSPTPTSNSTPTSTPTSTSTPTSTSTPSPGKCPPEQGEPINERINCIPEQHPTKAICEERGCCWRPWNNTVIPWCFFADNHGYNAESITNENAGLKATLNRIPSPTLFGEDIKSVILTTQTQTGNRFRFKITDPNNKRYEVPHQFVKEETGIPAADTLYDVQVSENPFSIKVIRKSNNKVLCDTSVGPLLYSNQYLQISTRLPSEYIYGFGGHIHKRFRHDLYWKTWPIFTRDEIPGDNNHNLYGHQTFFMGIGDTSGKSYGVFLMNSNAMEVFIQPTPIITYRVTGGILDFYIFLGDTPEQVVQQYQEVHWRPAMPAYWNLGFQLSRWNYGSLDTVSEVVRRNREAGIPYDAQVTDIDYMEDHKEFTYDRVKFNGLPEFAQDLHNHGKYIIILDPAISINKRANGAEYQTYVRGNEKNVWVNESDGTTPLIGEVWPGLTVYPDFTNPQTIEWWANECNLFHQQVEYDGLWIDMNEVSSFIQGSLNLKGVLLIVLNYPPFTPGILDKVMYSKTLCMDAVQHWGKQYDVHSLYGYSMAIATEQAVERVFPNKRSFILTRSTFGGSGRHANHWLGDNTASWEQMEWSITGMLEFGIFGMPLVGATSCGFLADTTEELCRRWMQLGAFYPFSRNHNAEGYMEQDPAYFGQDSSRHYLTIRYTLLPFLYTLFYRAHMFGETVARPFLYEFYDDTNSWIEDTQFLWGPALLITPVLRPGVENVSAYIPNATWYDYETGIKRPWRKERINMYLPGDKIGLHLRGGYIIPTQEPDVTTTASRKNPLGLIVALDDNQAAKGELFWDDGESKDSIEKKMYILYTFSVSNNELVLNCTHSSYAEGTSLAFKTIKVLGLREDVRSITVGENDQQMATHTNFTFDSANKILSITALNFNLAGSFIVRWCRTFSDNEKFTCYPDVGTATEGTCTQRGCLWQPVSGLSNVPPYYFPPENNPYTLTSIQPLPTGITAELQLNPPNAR
T1 sequence (P23739 1014-1841 limits assumed): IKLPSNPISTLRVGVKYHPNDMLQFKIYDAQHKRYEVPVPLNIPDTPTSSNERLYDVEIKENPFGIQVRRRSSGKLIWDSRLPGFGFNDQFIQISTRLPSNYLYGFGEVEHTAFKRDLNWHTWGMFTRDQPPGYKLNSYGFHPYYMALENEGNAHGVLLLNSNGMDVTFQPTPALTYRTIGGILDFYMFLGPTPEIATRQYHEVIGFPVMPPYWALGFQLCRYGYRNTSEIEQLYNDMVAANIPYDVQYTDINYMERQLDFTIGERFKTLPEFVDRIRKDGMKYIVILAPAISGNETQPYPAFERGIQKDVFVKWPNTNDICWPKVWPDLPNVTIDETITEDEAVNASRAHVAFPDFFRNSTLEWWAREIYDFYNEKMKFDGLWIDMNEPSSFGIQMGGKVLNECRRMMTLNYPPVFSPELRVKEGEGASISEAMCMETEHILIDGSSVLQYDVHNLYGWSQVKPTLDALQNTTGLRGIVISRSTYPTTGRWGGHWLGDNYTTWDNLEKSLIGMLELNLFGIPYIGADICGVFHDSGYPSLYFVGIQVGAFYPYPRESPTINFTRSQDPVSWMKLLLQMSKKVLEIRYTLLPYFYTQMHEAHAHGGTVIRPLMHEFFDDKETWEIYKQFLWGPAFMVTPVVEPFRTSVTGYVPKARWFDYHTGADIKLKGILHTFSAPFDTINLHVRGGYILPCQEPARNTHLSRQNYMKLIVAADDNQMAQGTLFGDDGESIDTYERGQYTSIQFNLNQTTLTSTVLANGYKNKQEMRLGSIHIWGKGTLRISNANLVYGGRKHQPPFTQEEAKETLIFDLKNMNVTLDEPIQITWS

[4] = target: T1, Sucrase-isomaltase, intestinal; assay: Inhibition of rat intestinal isomaltase using p-nitrophenyl glycoside as substrate assessed as release of p-nitrophenol measured by spectrometric assay
[5] = Inhibition of almond beta-glucosidase using p-nitrophenyl glycoside as substrate assessed as release of p-nitrophenol measured by spectrometric assay; parameters: species or system Prunus dulcis
[6] = tested on: Prunus dulcis; assay: Inhibition of almond beta-glucosidase using p-nitrophenyl glycoside as substrate assessed as release of p-nitrophenol at 1000 uM measured by spectrometric assay relative to control
[7] = Inhibition of bovine liver beta-glucosidase using p-nitrophenyl glycoside as substrate assessed as release of p-nitrophenol measured by spectrometric assay; parameters: species or system Bos taurus
[8] = species on record: Bos taurus; assay: Inhibition of bovine liver beta-glucosidase using p-nitrophenyl glycoside as substrate assessed as release of p-nitrophenol at 1000 uM measured by spectrometric assay relative to control; assay type: tissue-based
[9] = target: Alpha-galactosidase (Coffea arabica, UniProt Q42656); assay: Inhibition of coffee beans alpha-galactosidase using p-nitrophenyl glycoside as substrate assessed as release of p-nitrophenol measured by spectrometric assay
Alpha-galactosidase, sequence (Q42656 whole entry): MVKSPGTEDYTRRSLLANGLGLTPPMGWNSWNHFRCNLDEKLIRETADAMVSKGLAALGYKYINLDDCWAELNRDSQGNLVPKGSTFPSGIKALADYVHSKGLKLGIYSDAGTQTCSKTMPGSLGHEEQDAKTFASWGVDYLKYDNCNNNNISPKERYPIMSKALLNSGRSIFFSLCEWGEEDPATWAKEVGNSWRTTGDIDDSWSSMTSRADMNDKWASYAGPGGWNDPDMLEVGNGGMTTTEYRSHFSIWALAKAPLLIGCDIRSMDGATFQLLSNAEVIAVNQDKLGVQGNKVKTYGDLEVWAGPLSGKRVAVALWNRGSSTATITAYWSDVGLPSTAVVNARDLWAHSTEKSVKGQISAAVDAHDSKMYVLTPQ

[10] = target: Alpha-galactosidase (Coffea arabica) (UniProt Q42656); assay: Inhibition of coffee beans alpha-galactosidase using p-nitrophenyl glycoside as substrate assessed as release of p-nitrophenol at 1000 uM measured by spectrometric assay relative to control
Alpha-galactosidase (Coffea arabica), sequence (Q42656 16-378 limits assumed): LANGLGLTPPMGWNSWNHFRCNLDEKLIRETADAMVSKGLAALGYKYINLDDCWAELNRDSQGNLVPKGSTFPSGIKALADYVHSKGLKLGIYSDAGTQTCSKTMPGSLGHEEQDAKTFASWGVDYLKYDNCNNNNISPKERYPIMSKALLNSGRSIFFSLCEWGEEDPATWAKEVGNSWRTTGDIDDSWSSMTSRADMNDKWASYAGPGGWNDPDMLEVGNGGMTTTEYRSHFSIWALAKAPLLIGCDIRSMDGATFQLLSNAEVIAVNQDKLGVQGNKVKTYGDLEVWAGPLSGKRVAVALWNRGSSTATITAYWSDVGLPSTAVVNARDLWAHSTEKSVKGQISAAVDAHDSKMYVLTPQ

[11] = Inhibition of bovine liver beta-galactosidase using p-nitrophenyl glycoside as substrate assessed as release of p-nitrophenol measured by spectrometric assay; assay type: tissue-based, Bos taurus
[12] = species on record: Bos taurus; assay: Inhibition of bovine liver beta-galactosidase using p-nitrophenyl glycoside as substrate assessed as release of p-nitrophenol at 1000 uM measured by spectrometric assay relative to control
[13] = Inhibition of jack bean alpha-mannosidase using p-nitrophenyl glycoside as substrate assessed as release of p-nitrophenol measured by spectrometric assay; parameters: species or system Canavalia ensiformis
[14] = target: T2, Alpha-mannosidase (Canavalia ensiformis) (UniProt C0HJB3); assay: Inhibition of jack bean alpha-mannosidase using p-nitrophenyl glycoside as substrate assessed as release of p-nitrophenol at 1000 uM measured by spectrometric assay relative to control
T2 sequence (whole entry): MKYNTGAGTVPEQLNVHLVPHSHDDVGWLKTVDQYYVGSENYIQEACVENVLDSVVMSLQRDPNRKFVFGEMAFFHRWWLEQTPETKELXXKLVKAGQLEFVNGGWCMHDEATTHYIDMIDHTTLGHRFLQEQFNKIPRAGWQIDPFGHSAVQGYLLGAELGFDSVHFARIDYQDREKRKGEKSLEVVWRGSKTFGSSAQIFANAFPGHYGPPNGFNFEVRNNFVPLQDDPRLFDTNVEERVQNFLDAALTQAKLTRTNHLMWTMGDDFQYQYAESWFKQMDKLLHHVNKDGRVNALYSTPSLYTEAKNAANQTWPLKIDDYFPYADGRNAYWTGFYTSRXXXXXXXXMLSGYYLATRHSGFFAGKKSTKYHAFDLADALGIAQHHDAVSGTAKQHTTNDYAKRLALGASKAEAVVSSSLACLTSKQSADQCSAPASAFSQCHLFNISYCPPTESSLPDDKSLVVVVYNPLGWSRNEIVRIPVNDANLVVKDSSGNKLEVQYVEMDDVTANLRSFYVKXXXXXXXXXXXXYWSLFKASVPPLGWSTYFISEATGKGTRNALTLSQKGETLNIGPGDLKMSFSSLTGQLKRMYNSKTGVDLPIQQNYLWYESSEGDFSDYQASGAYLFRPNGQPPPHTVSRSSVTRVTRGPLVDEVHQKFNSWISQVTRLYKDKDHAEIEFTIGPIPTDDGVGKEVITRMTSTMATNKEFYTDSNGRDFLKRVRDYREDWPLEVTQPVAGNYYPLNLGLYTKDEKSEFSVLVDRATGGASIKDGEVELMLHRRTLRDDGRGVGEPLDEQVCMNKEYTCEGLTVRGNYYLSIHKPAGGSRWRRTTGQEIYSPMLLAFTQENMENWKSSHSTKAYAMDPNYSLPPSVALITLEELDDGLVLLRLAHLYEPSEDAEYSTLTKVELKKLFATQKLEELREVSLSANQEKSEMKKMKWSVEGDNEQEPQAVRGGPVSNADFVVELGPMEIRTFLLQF

[15] = Inhibition of snail beta-mannosidase using p-nitrophenyl glycoside as substrate assessed as release of p-nitrophenol measured by spectrometric assay; parameters: species or system Helix pomatia
[16] = tested on: Helix pomatia; assay: Inhibition of snail beta-mannosidase using p-nitrophenyl glycoside as substrate assessed as release of p-nitrophenol at 1000 uM measured by spectrometric assay relative to control
[17] = target: T3, Tissue alpha-L-fucosidase (Bos taurus, UniProt Q2KIM0); assay: Inhibition of bovine kidney alpha-L-fucosidase using p-nitrophenyl glycoside as substrate assessed as release of p-nitrophenol measured by spectrometric assay
T3 sequence (Q2KIM0 whole entry): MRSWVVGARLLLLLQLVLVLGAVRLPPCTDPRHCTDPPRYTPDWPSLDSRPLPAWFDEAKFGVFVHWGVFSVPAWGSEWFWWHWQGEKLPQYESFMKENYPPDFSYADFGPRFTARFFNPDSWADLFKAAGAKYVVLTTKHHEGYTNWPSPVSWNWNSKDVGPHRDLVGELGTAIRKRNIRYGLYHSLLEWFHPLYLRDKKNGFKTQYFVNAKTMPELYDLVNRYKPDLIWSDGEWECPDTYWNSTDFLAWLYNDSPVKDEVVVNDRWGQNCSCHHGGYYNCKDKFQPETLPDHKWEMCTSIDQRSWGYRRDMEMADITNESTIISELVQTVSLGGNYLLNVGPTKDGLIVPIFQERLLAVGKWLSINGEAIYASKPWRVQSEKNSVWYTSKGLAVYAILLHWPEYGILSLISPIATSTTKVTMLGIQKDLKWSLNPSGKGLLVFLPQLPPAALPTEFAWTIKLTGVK

[18] = target: T4, Tissue alpha-L-fucosidase (Bos taurus) (UniProt Q2KIM0); assay: Inhibition of bovine kidney alpha-L-fucosidase using p-nitrophenyl glycoside as substrate assessed as release of p-nitrophenol at 1000 uM measured by spectrometric assay relative to control; assay type: tissue-based
T4 sequence (whole entry): T3 sequence (Q2KIM0 whole entry)

[19] = Inhibition of porcine kidney alpha-trehalase using p-nitrophenyl glycoside as substrate assessed as release of p-nitrophenol measured by spectrometric assay; parameters: species or system Sus scrofa
[20] = species on record: Sus scrofa; assay: Inhibition of porcine kidney alpha-trehalase using p-nitrophenyl glycoside as substrate assessed as release of p-nitrophenol at 1000 uM measured by spectrometric assay relative to control
[21] = Inhibition of Aspergillus niger amyloglucosidase using p-nitrophenyl glycoside as substrate assessed as release of p-nitrophenol measured by spectrometric assay
[22] = tested on: Aspergillus niger; assay: Inhibition of Aspergillus niger amyloglucosidase using p-nitrophenyl glycoside as substrate assessed as release of p-nitrophenol at 1000 uM measured by spectrometric assay relative to control
[23] = Inhibition of Penicillium decumbens alpha-L-rhamnosidase using p-nitrophenyl glycoside as substrate assessed as release of p-nitrophenol measured by spectrometric assay
[24] = tested on: Penicillium decumbens; assay: Inhibition of Penicillium decumbens alpha-L-rhamnosidase using p-nitrophenyl glycoside as substrate assessed as release of p-nitrophenol at 1000 uM measured by spectrometric assay relative to control
[25] = target: Beta-glucuronidase (Escherichia coli (strain K12), UniProt P05804); assay: Inhibition of Escherichia coli beta-glucuronidase using p-nitrophenyl glycoside as substrate assessed as release of p-nitrophenol measured by spectrometric assay
Beta-glucuronidase, sequence (P05804 whole entry): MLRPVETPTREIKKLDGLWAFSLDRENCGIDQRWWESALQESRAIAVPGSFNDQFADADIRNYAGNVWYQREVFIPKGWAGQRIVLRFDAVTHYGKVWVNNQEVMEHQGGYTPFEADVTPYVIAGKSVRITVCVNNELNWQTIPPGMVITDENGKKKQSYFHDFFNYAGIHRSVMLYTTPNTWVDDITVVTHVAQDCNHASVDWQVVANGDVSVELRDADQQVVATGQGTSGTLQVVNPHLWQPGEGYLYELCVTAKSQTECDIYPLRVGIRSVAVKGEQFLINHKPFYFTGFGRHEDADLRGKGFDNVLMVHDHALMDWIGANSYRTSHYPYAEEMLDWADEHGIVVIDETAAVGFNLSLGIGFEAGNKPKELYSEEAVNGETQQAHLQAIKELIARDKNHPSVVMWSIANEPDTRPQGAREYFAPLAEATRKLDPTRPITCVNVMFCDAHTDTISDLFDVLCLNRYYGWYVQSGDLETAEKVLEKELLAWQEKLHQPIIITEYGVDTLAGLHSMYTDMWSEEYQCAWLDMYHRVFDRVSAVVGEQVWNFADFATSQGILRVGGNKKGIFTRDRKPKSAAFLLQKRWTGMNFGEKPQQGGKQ

[26] = target: Beta-glucuronidase (Escherichia coli (strain K12)) (UniProt P05804); assay: Inhibition of Escherichia coli beta-glucuronidase using p-nitrophenyl glycoside as substrate assessed as release of p-nitrophenol at 1000 uM measured by spectrometric assay relative to control
Beta-glucuronidase (Escherichia coli (strain K12)), sequence (P05804 whole entry, looked up): as the sequence (P05804 whole entry) above

[27] = species on record: Rattus norvegicus; assay: Inhibition of rat intestinal maltase using maltose as substrate assessed as release of D-glucose at 1000 uM measured by spectrometric assay
[28] = tested on: Oryza sativa; assay: Inhibition of rice alpha-glucosidase using p-nitrophenyl glycoside as substrate assessed as release of p-nitrophenol at 1000 uM measured by spectrometric assay

IC50 [2]	IC50 [4]	IC50 [5]	inhibition [6]	IC50 [9]	inhibition [10]	IC50 [13]	inhibition [14]	IC50 [15]	inhibition [16]	IC50 [17]	inhibition [18]	IC50 [19]	inhibition [20]	IC50 [21]	inhibition [22]	IC50 [23]	inhibition [24]	IC50 [25]	inhibition [26]	Structure (SMILES)	also measured
224 µM	Not Active	Not Active	14.8%	Not Active	3.3%	Not Active	9.6%	Not Active	4.9%	Not Active	5.5%	Not Active	0%	Not Active	0.83%	Not Active	6%	Not Active	9.4%	CCCCCCCC[C@@]1(CO)NC[C@H](O)[C@@H](O)[C@@H]1O.Cl	IC50 ([1]; read-out: IC50): 123 µM; IC50 [3]: Not Active; IC50 [7]: Not Active; inhibition [8]: 19%; IC50 [11]: Not Active; inhibition [12]: 44.9%; inhibition [27]: 23.2%
156 µM	Not Active	Not Active	4.4%	Not Active	1.7%	Not Active	1.2%	Not Active	4%	Not Active	0%	Not Active	5.3%	Not Active	0%	Not Active	0%	Not Active	3.9%	CCCCC[C@@]1(CO)NC[C@H](O)[C@@H](O)[C@@H]1O.Cl	IC50 ([1]; read-out: IC50): 48 µM; IC50 [3]: Not Active; IC50 [7]: Not Active; inhibition [8]: 9.2%; IC50 [11]: Not Active; inhibition [12]: 18.7%; inhibition [27]: 15.1%

Second part, the compound before the results:

Structure (SMILES)	IC50 [2]	IC50 [4]	IC50 [5]	inhibition [6]	IC50 [9]	inhibition [10]	IC50 [13]	inhibition [14]	IC50 [15]	inhibition [16]	IC50 [17]	inhibition [18]	IC50 [19]	inhibition [20]	IC50 [21]	inhibition [22]	IC50 [23]	inhibition [24]	IC50 [25]	inhibition [26]	also measured
CCCCCCCCCC[C@@]1(CO)NC[C@H](O)[C@@H](O)[C@@H]1O.Cl	263 µM	Not Active	Not Active	8.8%	Not Active	2.1%	Not Active	4.7%	Not Active	0%	Not Active	0%	Not Active	3%	Not Active	10.5%	Not Active	0%	Not Active	3.2%	IC50 ([1]; read-out: IC50): 159 µM; IC50 [3]: Not Active; IC50 ([7]; read-out: IC50): 83 µM; IC50 ([11]; read-out: IC50): 43 µM; inhibition [27]: 0%
CCCCCCCCCCCC[C@@]1(CO)NC[C@H](O)[C@@H](O)[C@@H]1O.Cl	660 µM	Not Active	Not Active	7.6%	Not Active	0%	Not Active	3.3%	Not Active	0.5%	Not Active	0%	Not Active	0%	Not Active	0%	Not Active	1.2%	Not Active	13.9%	IC50 [1]: Not Active; IC50 [3]: Not Active; IC50 ([7]; read-out: IC50): 47 µM; IC50 ([11]; read-out: IC50): 17 µM; inhibition [27]: 2.3%; inhibition [28]: 33.6%
CCC[C@@]1(CO)NC[C@H](O)[C@@H](O)[C@@H]1O.Cl	134 µM	Not Active	Not Active	19.5%	Not Active	9.6%	Not Active	13.8%	Not Active	4.9%	Not Active	30.4%	Not Active	2.7%	Not Active	2.3%	Not Active	2.7%	Not Active	42.1%	IC50 ([1]; read-out: IC50): 82 µM; IC50 ([3]; read-out: IC50): 94 µM; IC50 [7]: Not Active; inhibition [8]: 9.1%; IC50 [11]: Not Active; inhibition [12]: 15.4%; inhibition [27]: 0%
CCCCCC[C@@]1(CO)NC[C@H](O)[C@@H](O)[C@@H]1O.Cl	272 µM	Not Active	Not Active	2.5%	Not Active	8%	Not Active	6.7%	Not Active	2.8%	Not Active	0.9%	Not Active	3.4%	Not Active	13.2%	Not Active	1.5%	Not Active	17.2%	IC50 ([1]; read-out: IC50): 257 µM; IC50 [3]: Not Active; IC50 [7]: Not Active; inhibition [8]: 15.7%; IC50 [11]: Not Active; inhibition [12]: 24.8%; inhibition [27]: 11.6%
